Data as given in BindingDB's records for doi:10.7270/Q2F769ZM (The Scripps Research Institute Molecular Screening Center, 2007).
Counter-ions that a name gives are not always drawn.

biological target: Rho-associated protein kinase 2 (Homo sapiens, UniProt O75116); experiment: human Rho kinase 2 inhibition – biochemical, Kinase-Glo luminescence, S6 peptide, 1536-well, dose response (AID 644); conditions: not given
Sequence (O75116 whole entry): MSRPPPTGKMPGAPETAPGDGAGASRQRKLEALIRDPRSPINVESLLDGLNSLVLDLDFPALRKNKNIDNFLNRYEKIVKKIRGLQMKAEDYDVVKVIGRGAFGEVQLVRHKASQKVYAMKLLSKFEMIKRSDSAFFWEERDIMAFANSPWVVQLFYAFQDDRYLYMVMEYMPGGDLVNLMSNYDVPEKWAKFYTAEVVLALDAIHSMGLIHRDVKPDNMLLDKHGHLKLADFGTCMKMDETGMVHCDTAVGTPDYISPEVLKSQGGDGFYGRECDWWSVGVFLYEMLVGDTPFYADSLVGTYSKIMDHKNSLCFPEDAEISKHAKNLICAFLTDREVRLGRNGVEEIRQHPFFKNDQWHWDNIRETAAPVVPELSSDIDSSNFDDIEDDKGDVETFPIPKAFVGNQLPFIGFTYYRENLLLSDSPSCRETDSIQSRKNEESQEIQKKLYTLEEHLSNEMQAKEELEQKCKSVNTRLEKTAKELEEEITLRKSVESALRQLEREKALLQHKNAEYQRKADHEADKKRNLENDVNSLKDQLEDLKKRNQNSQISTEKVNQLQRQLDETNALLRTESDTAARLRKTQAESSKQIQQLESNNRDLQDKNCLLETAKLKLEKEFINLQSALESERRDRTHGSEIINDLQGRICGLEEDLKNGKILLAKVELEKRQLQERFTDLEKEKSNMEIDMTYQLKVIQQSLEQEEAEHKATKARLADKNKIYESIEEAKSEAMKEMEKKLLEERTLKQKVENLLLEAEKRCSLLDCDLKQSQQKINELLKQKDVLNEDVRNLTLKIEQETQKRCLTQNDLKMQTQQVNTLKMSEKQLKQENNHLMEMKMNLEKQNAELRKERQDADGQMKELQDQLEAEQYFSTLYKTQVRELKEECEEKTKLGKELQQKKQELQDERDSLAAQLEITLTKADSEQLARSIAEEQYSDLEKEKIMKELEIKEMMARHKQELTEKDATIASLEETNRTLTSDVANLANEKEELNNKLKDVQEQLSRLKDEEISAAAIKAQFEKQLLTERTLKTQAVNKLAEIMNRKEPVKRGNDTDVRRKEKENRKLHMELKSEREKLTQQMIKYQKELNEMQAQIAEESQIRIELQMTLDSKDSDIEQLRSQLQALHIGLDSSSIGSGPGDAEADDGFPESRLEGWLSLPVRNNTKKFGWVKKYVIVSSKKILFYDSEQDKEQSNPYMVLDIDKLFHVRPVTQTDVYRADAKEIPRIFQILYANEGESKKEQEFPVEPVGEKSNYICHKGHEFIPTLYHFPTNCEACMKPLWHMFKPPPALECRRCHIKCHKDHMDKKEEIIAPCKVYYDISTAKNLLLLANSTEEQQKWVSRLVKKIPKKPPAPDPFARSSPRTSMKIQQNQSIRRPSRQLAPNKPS

Row | IC50 | Compound
1 | < 0.00303 µM | O=C(Nc1nc(-c2ccncc2)cs1)C1COc2ccccc2O1 (stereo not given)
2 | 23.1 µM | Nc1nonc1-c1nc2ccccc2[nH]1
3 | > 19.9 µM | COc1ccc2[nH]c(=O)c3c(c2c1)OC(C)(C)C=C3
4 | 0.765 µM | O=C(CSc1nnc(-c2ccncc2)[nH]1)c1ccccc1
5 | > 19.9 µM | Cc1[nH]nc2c1C(c1ccc(-c3ccccc3C#N)o1)C(C#N)C(=N)O2 (stereo not given)
6 | 10.5 µM | COc1cc(N=CC2C(=O)Nc3ccccc32)cc(OC)c1OC (stereo not given)
7 | > 19.9 µM | O=C(Nn1c(=S)[nH]c2ccccc2c1=O)c1ccncc1
8 | 0.8 µM | c1ccc2c(-c3ccncc3)c[nH]c2c1
9 | 0.1 µM | C[C@H]1CNCCN1S(=O)(=O)c1cccc2cnccc12
10 | > 19.9 µM | Nc1ccc2cn[nH]c2c1
11 | > 59.6 µM | CCN1C(=O)N(CC)C(O)(c2ccccc2)C1(O)c1ccccc1 (stereo not given) [1,3-diethyl-4,5-bis(oxidanyl)-4,5-diphenyl-imidazolidin-2-one]
12 | > 59.6 µM | Cc1cccc2cc(=O)[nH]c(C)c12 [1,8-dimethyl-2H-isoquinolin-3-one]
13 | > 59.6 µM | Nc1nc2ccccc2n1C(=O)CCc1ccccc1 [1-(2-Amino-benzoimidazol-1-yl)-3-phenyl-propan-1-one]
14 | > 59.6 µM | CC(=O)c1cccc(NC(=O)NCc2cccs2)c1 [1-(3-acetylphenyl)-3-(2-thenyl)urea]
15 | 8.16 µM | CC(=O)n1cc(-c2ccncc2)c2ccccc21 [1-(3-pyridin-4-yl-1-indolyl)ethanone;hydrochloride]
16 | > 59.6 µM | CC(C)(C)C(=O)c1sc(Nc2ccccc2)nc1N [1-(4-amino-2-anilino-1,3-thiazol-5-yl)-2,2-dimethyl-1-propanone]
17 | > 19.9 µM | CN1c2cccc3cccc(c23)C1N=O (stereo not given) [1-Methyl-1H-benzo[cd]indol-2-one oxime]

Row | IC50 | Compound
18 | > 59.6 µM | CC(=O)c1ccc(OCC(O)COc2ccc(C(C)=O)cc2)cc1 [1-[4-[3-(4-acetylphenoxy)-2-hydroxy-propoxy]phenyl]ethanone]
19 | 17.5 µM | COc1cc(C=Nn2nnnc2N)ccc1OCc1ccc(F)cc1 [1-[[4-[(4-fluorophenyl)methoxy]-3-methoxy-phenyl]methylideneamino]-1,2,3,4-tetrazol-5-amine]
20 | > 59.6 µM | CCn1cc(C(=O)Nn2cnnc2)c(=O)c2ccc(C)nc21 [1-ethyl-4-keto-7-methyl-N-(1,2,4-triazol-4-yl)-1,8-naphthyridine-3-carboxamide]
21 | > 19.9 µM | N#Cc1c(N=Cc2ccco2)sc2c1CCCCC2 [2-(2-furanylmethylideneamino)-5,6,7,8-tetrahydro-4H-cyclohepta[b]thiophene-3-carbonitrile]
22 | > 59.6 µM | N#Cc1c(N=Cc2cccs2)sc2c1CCCCC2 [2-(2-thenylideneamino)-5,6,7,8-tetrahydro-4H-cyclohepta[b]thiophene-3-carbonitrile]
23 | > 19.9 µM | Cn1c(CSCc2ccc(Cl)c(Cl)c2)nnc1SCC(=O)Nc1nccs1 [2-[(5-{[(3,4-dichlorobenzyl)thio]methyl}-4-methyl-4H-1,2,4-triazol-3-yl)thio]-N-1,3-thiazol-2-ylacetamide]
24 | 127 µM | N#CC1C(=N)Oc2cc(O)ccc2C1c1ccncc1 (stereo not given) [2-amino-7-hydroxy-4-(4-pyridyl)-4H-chromene-3-carbonitrile]
25 | > 59.6 µM | CCCCc1c(C)nc(N)[nH]c1=O [2-azanyl-5-butyl-6-methyl-1H-pyrimidin-4-one]
26 | > 59.6 µM | c1coc(CNc2ncnc3sc4c(c23)CCCCC4)c1 [2-furfuryl(6,7,8,9-tetrahydro-5H-cyclohepta[4,5]thieno[1,2-c]pyrimidin-4-yl)amine]
27 | > 59.6 µM | O=c1ccc(=O)n2n1CC(O)C2 [2-hydroxy-2,3-dihydro-1H-pyrazolo[1,2-a]pyridazine-5,8-dione]
28 | > 59.6 µM | O=C(O)c1cc(NCc2ccc3c(c2)OCO3)ccc1N1CCOCC1 [2-morpholino-5-(piperonylamino)benzoic acid]
29 | > 19.9 µM | Fc1ccccc1Cn1nnc2c(-n3ccnc3)ncnc21 [3-(2-Fluoro-benzyl)-7-imidazol-1-yl-3H-[1,2,3]triazolo[4,5-d]pyrimidine]
30 | > 59.6 µM | COc1ccc(CCC(=O)Nc2nc3c(s2)CN(C)CC3)cc1OC [3-(3,4-dimethoxyphenyl)-N-(5-methyl-6,7-dihydro-4H-[1,3]thiazolo[5,4-c]pyridin-2-yl)propanamide]
31 | > 19.9 µM | COc1ccc2cc3c(N)c(C(=O)NCc4ccco4)sc3nc2c1 [3-Amino-7-methoxy-thieno[2,3-b]quinoline-2-carboxylic acid (furan-2-ylmethyl)-amide]
32 | 6.83 µM | COc1ccc2c(Cl)c(C(N)=O)sc2c1 [3-Chloro-6-methoxy-benzo[b]thiophene-2-carboxylic acid amide]
33 | > 59.6 µM | CN(C(=O)c1cccc(-n2c(O)c3c(c2O)CC=CC3)c1)C1CCCCC1 [3-[1,3-bis(oxidanylidene)-3a,4,7,7a-tetrahydroisoindol-2-yl]-N-cyclohexyl-N-methyl-benzamide]

Row | Compound | IC50
34 | C1=C(c2c[nH]c3ccccc23)CCNC1 | 2.53 µM

same assay, conditions: inactive by the depositor's call

Row | IC50 | Compound
35 | 47.9 µM | COC1(OC)N=C(N)C2(C#N)C(c3ccc4c(c3)OCO4)C12C#N (stereo not given)
36 | 16.3 µM | Brc1ccc2[nH]ncc2c1
37 | 12.9 µM | Nc1ccc2[nH]ncc2c1
38 | 12 µM | Cc1c(C)n(C)c2ccc(C(=O)NCc3cccs3)cc12 [1,2,3-trimethyl-N-(2-thenyl)indole-5-carboxamide]
39 | 19 µM | O=C(Nc1ccncc1)Nc1ccc(F)cc1F [1-(2,4-difluorophenyl)-3-(4-pyridyl)urea]
40 | 10.1 µM | CN1C(=O)CSc2ccc(NC(=O)NCc3cccnc3)cc21 [1-(3-keto-4-methyl-1,4-benzothiazin-6-yl)-3-(3-pyridylmethyl)urea]
41 | 20.5 µM | Nc1ncnc2c1cnn2-c1ccccc1 [1-Phenyl-1H-pyrazolo[3,4-d]pyrimidin-4-ylamine]
42 | 143 µM | NC(=O)c1sc2nc(N3CCCCC3)c3c(c2c1N)CCCC3 [1-amino-5-(1-piperidinyl)-6,7,8,9-tetrahydrothieno[2,3-c]isoquinoline-2-carboxamide]
43 | 20.5 µM | N#Cc1cc2c(nc1SCc1ccncc1)CCC2 [2-(4-pyridylmethylthio)-1-pyrindan-3-carbonitrile]
44 | 23.4 µM | O=C(CSc1nc(-c2ccc(F)cc2)c[nH]1)Nc1cccc(O)c1 [2-[5-(4-Fluoro-phenyl)-1H-imidazol-2-ylsulfanyl]-N-(3-hydroxy-phenyl)-acetamide]
45 | 19.5 µM | NC(=O)c1c(-c2cccs2)csc1N [2-amino-4-(2-thienyl)thiophene-3-carboxamide]
46 | 86.7 µM | Cc1c(C(=O)N2CCCCC2)sc(N)c1C#N [2-amino-4-methyl-5-(piperidine-1-carbonyl)thiophene-3-carbonitrile]
47 | 79.1 µM | Clc1ccccc1-c1nnc2sc(-c3ccncc3)nn12 [3-(2-chlorophenyl)-6-(4-pyridyl)-[1,2,4]triazolo[3,4-b][1,3,4]thiadiazole]
48 | 1010 µM | Cc1c(C(=O)Nc2ccc3oc(-c4cccnc4)nc3c2)oc2ccccc12 [3-Methyl-benzofuran-2-carboxylic acid (2-pyridin-3-yl-benzooxazol-5-yl)-amide]

Row | Compound | IC50
49 | c1coc(CNc2ncnc3[nH]cnc23)c1 | 21.4 µM
50 | CCN1CCN(Cc2nnnn2C(C)(C)C)CC1 [1-(1-tert-Butyl-1H-tetrazol-5-ylmethyl)-4-ethyl-piperazine] | 17.4 µM
